# Read-outs that look alike come from different tables or passages of the source.
# Legend:
# Assay in all cases: stopped-flow CO2 hydrase assay
# Assay type in all cases: biochemical
# hCA IX = molecular target: T1, hCA IX (Homo sapiens, UniProt Q16790)
# T1 construct: gene CA9; recombinant, made in-house
# Excerpt: stopped-flow CO2 hydrase assay on hCA IX
# hCA I = molecular target: T2, hCA I (Homo sapiens, UniProt P00915)
# T2 construct: gene CA1; purchased from Merck; cytosolic isoform; construct not described
# Excerpt: stopped-flow CO2 hydrase assay on hCA I
# hCA XII = molecular target: T3, hCA XII (Homo sapiens, UniProt O43570)
# T3 construct: gene CA12; recombinant, made in-house
# Excerpt: stopped-flow CO2 hydrase assay on hCA XII
# hCA II = molecular target: T4, hCA II (Homo sapiens, UniProt P00918)
# T4 construct: gene CA2; purchased from Merck; cytosolic isoform; construct not described
# Excerpt: stopped-flow CO2 hydrase assay on hCA II
# [1] = CO2 substrate; […] HEPES pH […] Na2SO4, […] min preincubation at room temperature
# T2 sequence (P00915 2-261): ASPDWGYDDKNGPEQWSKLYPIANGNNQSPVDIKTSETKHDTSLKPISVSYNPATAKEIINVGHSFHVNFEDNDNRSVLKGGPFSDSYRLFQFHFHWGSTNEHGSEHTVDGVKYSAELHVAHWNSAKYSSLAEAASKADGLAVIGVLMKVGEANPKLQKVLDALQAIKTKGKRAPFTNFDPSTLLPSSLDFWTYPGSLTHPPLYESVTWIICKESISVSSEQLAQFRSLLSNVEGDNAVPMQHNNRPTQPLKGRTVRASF
# T3 sequence (O43570 25-354 limits assumed): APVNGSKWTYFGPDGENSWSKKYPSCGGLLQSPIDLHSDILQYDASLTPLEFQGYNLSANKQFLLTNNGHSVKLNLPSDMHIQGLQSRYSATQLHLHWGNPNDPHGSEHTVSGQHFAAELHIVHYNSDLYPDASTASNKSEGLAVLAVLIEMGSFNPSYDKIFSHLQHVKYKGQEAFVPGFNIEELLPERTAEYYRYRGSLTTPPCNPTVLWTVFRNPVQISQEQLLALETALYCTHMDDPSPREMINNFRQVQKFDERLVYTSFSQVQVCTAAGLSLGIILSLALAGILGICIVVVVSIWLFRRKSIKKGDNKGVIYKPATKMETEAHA
Ki (hCA IX; [1]),Ki (hCA I; [1]),Ki (hCA XII; [1]),Ki (hCA II; [1]),Ki (hCA IX),Ki (hCA I),Ki (hCA XII),Ki (hCA II),SMILES
2.6 nM,0.52 nM,7.5 nM,0.33 nM,,,,,"NS(=O)(=O)c1cc(C(=O)O)c(Cl)cc1Cl [compound 1, 2,4‐dichloro‐5‐sulfamoylbenzoic acid]"
,,,,40.1 nM,85.7 nM,50.1 nM,3.9 nM,"CC(C)(C)OC(=O)N1CCN(C(=O)c2cc(S(N)(=O)=O)c(Cl)cc2Cl)CC1 [compound 2, Tert‐butyl 4‐[(2,4‐dichloro‐5‐sulfamoylphenyl)carbonyl]piperazine‐1‐carboxylate]"
,,,,39.7 nM,9.4 nM,7.1 nM,7.4 nM,"NS(=O)(=O)c1cc(C(=O)N2CCN(S(=O)(=O)c3ccccc3)CC2)c(Cl)cc1Cl [compound 4, 2,4‐dichloro‐5‐{[4‐(phenylsulfonyl)piperazin‐1‐yl]carbonyl}benzenesulfonamide]"
,,,,340 nM,64 nM,62.4 nM,29 nM,"Cc1ccc(S(=O)(=O)N2CCN(C(=O)c3cc(S(N)(=O)=O)c(Cl)cc3Cl)CC2)cc1 [compound 5, 2,4‐dichloro‐5‐({4‐[(4‐methylphenyl)sulfonyl]piperazin‐1‐yl}carbonyl)benzenesulfonamide]"
,,,,40.6 nM,9.1 nM,11.6 nM,2.8 nM,"COc1ccc(S(=O)(=O)N2CCN(C(=O)c3cc(S(N)(=O)=O)c(Cl)cc3Cl)CC2)cc1 [compound 6, 2,4‐dichloro‐5‐({4‐[(4‐methoxyphenyl)sulfonyl]piperazin‐1‐yl}carbonyl)benzenesulfonamide]"
,,,,35.8 nM,8.2 nM,5.2 nM,3.4 nM,"NS(=O)(=O)c1cc(C(=O)N2CCN(S(=O)(=O)c3ccc(Cl)cc3)CC2)c(Cl)cc1Cl [compound 7, 2,4‐dichloro‐5‐({4‐[(4‐chlorophenyl)sulfonyl]piperazin‐1‐yl}carbonyl)benzenesulfonamide]"
,,,,39.4 nM,79.9 nM,7.9 nM,71.2 nM,"NS(=O)(=O)c1cc(C(=O)N2CCN(S(=O)(=O)c3ccc([N+](=O)[O-])cc3)CC2)c(Cl)cc1Cl [compound 8, 2,4‐dichloro‐5‐({4‐[(4‐nitrophenyl)sulfonyl]piperazin‐1‐yl}carbonyl)benzenesulfonamide]"
,,,,152 nM,5.7 nM,6.9 nM,2.6 nM,"Nc1ccc(S(=O)(=O)N2CCN(C(=O)c3cc(S(N)(=O)=O)c(Cl)cc3Cl)CC2)cc1 [compound 9, 5‐({4‐[(4‐aminophenyl)sulfonyl]piperazin‐1‐yl}carbonyl)‐2,4‐dichlorobenzenesulfonamide]"
,,,,40.4 nM,8 nM,7.2 nM,5.4 nM,"CC(=O)Nc1ccc(S(=O)(=O)N2CCN(C(=O)c3cc(S(N)(=O)=O)c(Cl)cc3Cl)CC2)cc1 [compound 10, 5‐({4‐[(4‐acetylaminophenyl)sulfonyl]piperazin‐1‐yl}carbonyl)‐2,4‐dichlorobenzenesulfonamide]"
,,,,37.7 nM,6.2 nM,7.8 nM,6.6 nM,"NS(=O)(=O)c1cc(C(=O)N2CCN(S(=O)(=O)c3cccc([N+](=O)[O-])c3)CC2)c(Cl)cc1Cl [compound 11, 2,4‐dichloro‐5‐({4‐[(3‐nitrophenyl)sulfonyl]piperazin‐1‐yl}carbonyl)benzenesulfonamide]"
,,,,26.3 nM,5.8 nM,5.4 nM,0.8 nM,"Nc1cccc(S(=O)(=O)N2CCN(C(=O)c3cc(S(N)(=O)=O)c(Cl)cc3Cl)CC2)c1 [compound 12, 5‐({4‐[(3‐aminophenyl)sulfonyl]piperazin‐1‐yl}carbonyl)‐2,4‐dichlorobenzenesulfonamide]"
,,,,28.9 nM,7.8 nM,7.2 nM,0.3 nM,"NS(=O)(=O)c1cc(C(=O)N2CCN(S(=O)(=O)c3ccccc3[N+](=O)[O-])CC2)c(Cl)cc1Cl [compound 13, 2,4‐dichloro‐5‐({4‐[(2‐nitrophenyl)sulfonyl]piperazin‐1‐yl}carbonyl)benzenesulfonamide]"
,,,,11.4 nM,5.4 nM,9.6 nM,2.8 nM,"Nc1ccccc1S(=O)(=O)N1CCN(C(=O)c2cc(S(N)(=O)=O)c(Cl)cc2Cl)CC1 [compound 14, 5‐({4‐[(2‐aminophenyl)sulfonyl]piperazin‐1‐yl}carbonyl)‐2,4‐dichlorobenzenesulfonamide]"
,,,,39 nM,7.1 nM,9.1 nM,5.7 nM,"NS(=O)(=O)c1cc(C(=O)N2CCN(S(=O)(=O)c3ccc(Cl)c(Cl)c3)CC2)c(Cl)cc1Cl [compound 15, 2,4‐dichloro‐5‐({4‐[(3,4‐dichlorophenyl)sulfonyl]piperazin‐1‐yl}carbonyl)benzenesulfonamide]"
,,,,273 nM,0.54 nM,0.87 nM,0.07 nM,"NS(=O)(=O)c1cc(C(=O)N2CCN(S(=O)(=O)Cc3ccccc3)CC2)c(Cl)cc1Cl [compound 16, 5‐{[4‐(benzylsulfonyl)piperazin‐1‐yl]carbonyl}‐2,4‐dichlorobenzenesulfonamide]"
